{"source": "paper PMC12799421", "about": "“Inhibition of constitutive activity of the atypical chemokine receptor 3 by the small-molecule inverse agonist VUF16840” (Molecular Pharmacology, 2025)", "format_in_all_cases": "cell-based", "key": {"CCR3": {"biological_target": "CCR3 (Homo sapiens, UniProt P51677)", "sequence (P51677 whole entry)": "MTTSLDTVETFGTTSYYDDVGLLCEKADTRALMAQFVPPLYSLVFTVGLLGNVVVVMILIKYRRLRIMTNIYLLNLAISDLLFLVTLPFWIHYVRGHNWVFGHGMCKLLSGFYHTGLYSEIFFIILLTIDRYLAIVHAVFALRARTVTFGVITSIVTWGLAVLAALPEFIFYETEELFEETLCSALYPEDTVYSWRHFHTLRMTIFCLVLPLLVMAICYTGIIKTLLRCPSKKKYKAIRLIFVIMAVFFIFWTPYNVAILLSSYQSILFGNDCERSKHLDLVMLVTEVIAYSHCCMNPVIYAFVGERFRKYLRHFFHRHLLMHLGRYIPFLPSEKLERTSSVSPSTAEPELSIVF", "sequence (P32121 whole entry partner)": "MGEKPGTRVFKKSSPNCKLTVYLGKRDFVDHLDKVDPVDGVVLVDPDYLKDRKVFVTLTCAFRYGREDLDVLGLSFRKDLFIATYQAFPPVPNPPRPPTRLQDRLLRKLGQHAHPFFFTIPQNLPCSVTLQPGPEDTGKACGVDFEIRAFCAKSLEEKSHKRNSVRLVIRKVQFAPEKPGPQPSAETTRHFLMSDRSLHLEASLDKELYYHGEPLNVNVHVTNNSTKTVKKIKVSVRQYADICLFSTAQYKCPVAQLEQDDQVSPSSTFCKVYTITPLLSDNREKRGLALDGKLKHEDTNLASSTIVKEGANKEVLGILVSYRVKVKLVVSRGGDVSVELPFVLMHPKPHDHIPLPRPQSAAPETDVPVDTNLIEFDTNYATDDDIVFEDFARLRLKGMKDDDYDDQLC", "assay": "NanoBiT β-arrestin2 recruitment to CCR3, concentration-response", "procedure": "(§1) The pharmacological modulation of all chemokine receptors by VUF16840 was performed according to an established method.[8]^,[23]^,[39] Briefly, β-arrestin2 recruitment to chemokine receptors in response to 1 μM VUF16840 or positive control chemokines was monitored by NanoLuc complementation assay (NanoBiT, Promega). Four hours after transfection, cells were harvested, incubated for 25 minutes at 37 °C with furimazine and distributed into a white 96-well plates (1 × 10^5 cells per well). β-Arrestin2 recruitment was then detected for 20 minutes upon treatment with 1 μM VUF16840 (or increasing concentrations ligand for experiments with CC chemokine receptor [CCR3]) using the Mithras LB940 luminometer (Berthold Technologies). To evaluate the antagonist properties of VUF16840, full agonists of each receptor were added after the 20-minute incubation with VUF16840. Signal from wells treated with full agonist only was defined as 100% activity and signals from wells treated with no agonist were used to set 0% activity.\nSupplemental Figure 5 – Modulation of CCR3 receptor by VUF16840. Recruitment of β-arrestin2 towards CCR3 chemokine receptor was measured using a NLuc complementation assay in HEK293T cells. The concentration-dependent activation of the CCR3 was determined for VUF16840 and the endogenous agonist CCL13. All values depict the mean ± SD of ≥ 3 experiments."}, "[1]": {"system": "panel of 19 human chemokine receptors", "assay": "NanoBiT-complementation based chemokine receptor screen (agonist and antagonist mode)", "procedure": "as §1, with “activity. […]” for “activity.”\nFig. 4 Modulation of a panel of chemokine receptors by VUF16840. β-Arrestin2 recruitment toward a full panel of 19 chemokine receptor was measured using a NLuc complementation assay in HEK293T cells. […]"}, "hCXCR4": {"biological_target": "T1, hCXCR4 (Homo sapiens, UniProt P61073)", "T1 construct": "The CXCR4-Rluc8 fusion protein corresponds to CXCR4 isoform b (NCBI: NM_003467.2); expressed in transfected cells; host or cells: HEK293T", "T1 sequence (P61073 whole entry, the tested form may be a part, canonical isoform)": "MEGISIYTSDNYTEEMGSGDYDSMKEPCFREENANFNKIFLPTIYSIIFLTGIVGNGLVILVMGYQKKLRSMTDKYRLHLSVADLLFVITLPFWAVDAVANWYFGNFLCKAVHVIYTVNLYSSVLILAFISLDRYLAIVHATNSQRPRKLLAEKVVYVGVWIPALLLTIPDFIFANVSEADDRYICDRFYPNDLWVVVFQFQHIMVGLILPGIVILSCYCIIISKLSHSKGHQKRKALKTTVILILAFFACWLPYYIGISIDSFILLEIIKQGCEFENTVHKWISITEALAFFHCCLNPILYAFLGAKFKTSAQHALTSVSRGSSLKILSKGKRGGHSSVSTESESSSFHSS", "assay": "BRET β-arrestin2 recruitment to hCXCR4 in HEK293T cells", "conditions": "in the presence or absence of 100 nM CXCL12", "source_text": "The NLuc-ACKR3 plasmid was a kind gift from Prof Hill (Nottingham University, Nottingham, United Kingdom),[31] […] The mVenus-CAAX and the hACKR3-NLuc constructs have been described by Zarca et al.[23] The sequence of the used ACKR3 constructs corresponds to National Center for Biotechnology Information (NCBI) database entry NM_020311.3. Radioligand binding studies used a mammalian expression vector pcDEF3 encoding ACKR3, N-terminally fused to an HA-tag and C-terminally fused to a triple Alanine tag (NotI). This construct was the template for the C-terminal ACKR3 fusion with the luminescent Rluc8 protein (NCBI: EF446136.1). The CXCR4-Rluc8 fusion protein corresponds to CXCR4 isoform b (NCBI: NM_003467.2) fused at the C-terminus with a triple Alanine linker (NotI) before the Rluc8 protein.\nFor 1·10^6 HEK293T cells, a transfection mix consisting of 2 μg plasmid DNA, 12 μg linear PEI in a total volume of 200 μL 150 mM NaCl was made and thoroughly vortexed. The transfection mix was incubated for 15 minutes and consequently added to a cell suspension with a final concentration of 3·10^5 cells/mL. […]\nFig. 2 VUF16840 inhibits constitutive as well as agonist induced β-arrestin2 recruitment to ACKR3. […] Subsequently, β-arrestin2 recruitment to hACKR3 was detected by NanoBiT complementation. […]"}}}
{"smiles": "COc1ccccc1CCNC(=O)C1CN(C2CCCCC2)CCC1NC(=O)c1cc(-c2ccc(F)cc2F)on1", "note": "(centres unmarked) [VUF16840]", "values": [{"measurement": "EC50", "setting": "CCR3; HEK293T, NanoBiT, read-out: EC50, activation of CCR3 (β-arrestin2 recruitment)", "value": 200, "unit": "nM"}, {"measurement": "efficacy at CCR3 relative to endogenous agonist CCL13", "setting": "CCR3; β-arrestin2 recruitment", "value": 1.4, "unit": "fold"}, {"measurement": "agonist mode screen, modulation of β-arrestin2 recruitment", "setting": "[1]; 1 μM VUF16840", "value": "only modulated β-arrestin2 recruitment to hACKR3 and hCCR3"}, {"measurement": "antagonist-mode inhibition of any tested chemokine receptor", "setting": "[1]; 1 μM VUF16840 coincubated with respective endogenous agonist", "value": "≤ 50", "unit": "%"}, {"measurement": "effect on β-arrestin2 recruitment to CXCR4", "setting": "hCXCR4", "value": "did not affect"}]}
